Legend:
[1] = biological target: T1, WT full length PAICS (Homo sapiens, UniProt P22234); test: Biochemical assay to measure PAICS activity (Transcreener ADP2 FI, SAICAR synthetase reaction); settings: PAICS 2.5 nM, 30 mins pre-incubation, ADP detection by fluorescence intensity
T1 construct: 5 μl WT full length PAICS (final assay concentration, fac, 2.5 nM) in basic buffer
T1 sequence (P22234 1-425): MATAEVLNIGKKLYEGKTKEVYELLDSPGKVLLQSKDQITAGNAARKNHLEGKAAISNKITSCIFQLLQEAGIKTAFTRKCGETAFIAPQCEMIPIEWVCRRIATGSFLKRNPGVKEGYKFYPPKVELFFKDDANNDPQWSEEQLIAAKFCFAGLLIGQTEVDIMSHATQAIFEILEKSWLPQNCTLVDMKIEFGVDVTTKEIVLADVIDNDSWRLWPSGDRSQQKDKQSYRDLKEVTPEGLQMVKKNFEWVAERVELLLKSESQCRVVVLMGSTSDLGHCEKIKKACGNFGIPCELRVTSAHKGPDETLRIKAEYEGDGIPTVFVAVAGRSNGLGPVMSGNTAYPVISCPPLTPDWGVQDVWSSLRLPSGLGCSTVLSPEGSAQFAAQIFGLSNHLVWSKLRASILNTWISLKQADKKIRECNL
Source text: The biochemical assay was used to measure PAICS SAICAR synthetase-mediated conversion of CAIR, aspartic acid and ATP to SAICAR, ADP and inorganic phosphate (PI), post-AIR/CAIR equilibration (see FIG. 3). This was achieved by detecting the ADP generated during the reaction, using Bellbrook Lab's Transcreener ADP^2 FI assay. An increase in the fluorescence intensity is directly proportional to the amount of PAICS activity.
The Transcreener ADP^2 FI assay is a homogeneous competitive displacement fluorescence intensity assay which uses direct immunodetection of ADP. Displacement of the tracer by ADP causes an increase in the fluorescence at excitation 590 nm and emission 617 nm (FIG. 3).
5 μl WT full length PAICS (final assay concentration, fac, 2.5 nM) in basic buffer, added to black, non-binding, 384-well plates (Corning #3575), columns 1 to 22.5 μl basic buffer was added to columns 23+24 (negative control). PAICS stock at 31.9 μM from the PI's lab (Steve Firestine). Basic buffer contained 50 mM Tris-HCl pH8 and 0.5 mM EDTA, fac.
1 μl compound in 100% DMSO added per well, or 1 μl 100% DMSO to positive controls (columns 1+2) and negative controls (columns 23+24). Final assay top concentration of compound either 1 mM or 30 μM, serially diluted with half-log dilutions across the plate in duplicate (one 10-point concentration response curve across wells 3 to 12, another across 13 to 22). Compounds pre-incubated with PAICS enzyme for 30 mins at RT.
2 μl CAIR added (fac 10 μM) in basic buffer plus 25 mM MgCl2 and 50 mM KHCO3 fac to all wells. CAIR stock 50 mM from Steve Firestine's lab. 1 hr RT incubation for AIR-CAIR equilibration. NB: ˜50% CAIR is decarboxylated during equilibration therefore 5 μM remains for the synthetase reaction.
2 μl ATP/aspartic acid added (fac 30 μM/180 μM) in reaction buffer to all wells. 30 mins RT incubation for appropriate level of ATP turnover. Reaction buffer contained basic buffer plus 10 mM DTT, 0.01% BSA and 0.01% Brij 35, fac.
10 μl ADP detection reagent added to all wells (as per instructions, Transcreener ADP^2 FI kit, BellBrook Labs #3013-10K). Incubation for 1 h at RT to allow antibody equilibration. Fluorescence intensity determined using a Tecan Safire2 (excitation at 590 nm, emission at 617 nm).

[2] = tested on: LM2 and MDA-MB-231 breast cancer cell lines; test: PAICS 2D cell proliferation assay; format: cell-based; settings: Homo sapiens; 72 hours incubation; cell line (LM2 or MDA-MB-231) not given
Description: Frozen cryovial stocks of LM2 and MDA-MB-231 breast cancer cell lines were thawed and cultured in 4.5 g/L glucose DMEM (31966-047, Invitrogen) supplemented with 10% Fetal Bovine Serum (10500-064, Invitrogen) until confluent in a T175 flask. Cells were incubated at 37° C. with 5% CO2 in a humidified incubator.
Cells were collected from T175 flasks by washing with PBS (10010-056, Invitrogen) and dissociated using Accutase (A6964, Sigma Aldrich). This was followed by centrifuging (1200 rpm, 5 min) and resuspending the cells in 10 ml of media containing 1% penicillin/streptomycin (15140-122, Invitrogen). Cells were counted by trypan blue exclusion method using an automated cell counter (Cellometer) and diluted to a concentration of 40,000/ml. 1000 cells were then seeded into 384-well white-walled plates (Corning, 3707) in a volume of 25 μl. Plates were incubated overnight at 37° C. with 5% CO2.
After 24 hours, PAICS compounds were added onto the assay plates using an HP D300 Digital Dispenser (Hewlett Packard). 10 mM stocks were used and dispensed as a 10 point concentration response curve (CRC) ½ log dilution series with a final top concentration of 100 μM. Controls were added onto each plate: positive controls included Staurosporine CRC (100 μM stock dispensed as a 10 point CRC ½ log dilution series with a final top concentration of 1 μM) and PAICS compound MRT00211919 (10 mM stock dispensed as a 10 point CRC ½ log dilution series with a final top concentration of 100 μM); a high control of Staurosporine (0.1 μM (LM2), 0.316 μM (MDA-MB-231) FAC) and a low control of media containing 1% DMSO. A final concentration of 1% DMSO was then added across the plates for normalisation. Following compound addition, assay plates were incubated for 72 hours at 37° C. with 5% CO2.
After 72 h incubation, dead and viable cells were measured in each assay plate. Cytotoxicity was assessed through fluorescent DNA staining using the CellTox™ Green Cytotoxicity Assay kit (G8743, Promega) following the manufacturer's multiplexing protocol. Impaired cell membrane integrity results in the access of dye to stain DNA allowing quantification of dead cells. Cell viability was determined following ATP quantification using the CellTiter-Glo® Luminescent Cell Viability Assay kit (G7572, Promega) following the manufacturer's protocol. ATP released from lysed cells allowed for the generation of a signal proportional to the number of cells present in the well. All endpoint reads were performed using the PheraSTAR Plus (BMG Labtech). Data is expressed as % viable cells and % dead cells against controls (mean±SEM of duplicate curves).

IC50 [1]	EC50 [2]	SMILES
25 to 100 nM	250 to 500 nM	CN(C)CCOc1ccc(-c2ccc(Cl)c(NC(=O)c3coc(N)n3)c2)cn1 [Example 73, 2-Amino-N-(2-chloro-5-(6-(2-(dimethylamino)ethoxy)pyridin-3-yl)phenyl)oxazole-4-carboxamide]
25 to 100 nM	250 to 500 nM	CN(C)CCOc1ncc(-c2ccc(Cl)c(NC(=O)c3coc(N)n3)c2)cn1 [Example 74, 2-Amino-N-(2-chloro-5-(2-(2-(dimethylamino)ethoxy)pyrimidin-5-yl)phenyl)oxazole-4-carboxamide]
25 to 100 nM	100 to 250 nM	CN(C)CCOc1ccc(-c2ccc(Cl)c(NC(=O)c3coc(N)n3)c2)cc1 [Example 75, 2-Amino-N-{4-chloro-4′-[2-(dimethylamino)ethoxy]biphenyl-3-yl}-1,3-oxazole-4-carboxamide]
25 to 100 nM	250 to 500 nM	Nc1nc(C(=O)Nc2cc(-c3ccc(CN4CCNCC4)nc3)ccc2Cl)co1 [Example 76, 2-Amino-N-{2-chloro-5-[6-(piperazin-1-ylmethyl)pyridin-3-yl]phenyl}-1,3-oxazole-4-carboxamide]
10 to 25 nM	250 to 500 nM	Nc1nc(C(=O)Nc2cc(-c3ccc(CN[C@H]4CC[C@H](N)CC4)nc3)ccc2Cl)co1 [Example 77, 2-Amino-N-[5-(6-{[(trans-4-aminocyclohexyl)amino]methyl}pyridin-3-yl)-2-chlorophenyl]-1,3-oxazole-4-carboxamide]
10 to 25 nM	100 to 250 nM	CN1CCC(NCc2ccc(-c3ccc(Cl)c(NC(=O)c4coc(N)n4)c3)cn2)CC1 [Example 78, 2-Amino-N-[2-chloro-5-(6-{[(1-methylpiperidin-4-yl)amino]methyl}pyridin-3-yl)phenyl]-1,3-oxazole-4-carboxamide]
25 to 100 nM	250 to 500 nM	CN1CCN(Cc2ccc(-c3ccc(Cl)c(NC(=O)c4coc(N)n4)c3)cn2)CC1 [Example 83, 2-Amino-N-(2-chloro-5-{6-[(4-methylpiperazin-1-yl)methyl]pyridin-3-yl}phenyl)-1,3-oxazole-4-carboxamide]
< 10 nM	< 100 nM	Nc1nc(C(=O)Nc2cc(-c3nc(CN4CCNCC4)cs3)ccc2Cl)co1 [Example 89, 2-Amino-N-{2-chloro-5-[4-(piperazin-1-ylmethyl)-1,3-thiazol-2-yl]phenyl}-1,3-oxazole-4-carboxamide]
10 to 25 nM	100 to 250 nM	Nc1nc(C(=O)Nc2cc(-c3cnc(CN4CCNCC4)s3)ccc2Cl)co1 [Example 90, 2-Amino-N-{2-chloro-5-[2-(piperazin-1-ylmethyl)-1,3-thiazol-5-yl]phenyl}-1,3-oxazole-4-carboxamide]

The next lines start with the compound.

SMILES	IC50 [1]	EC50 [2]
Nc1nc(C(=O)Nc2cc(-c3ccc(CN4CC5CNCC5C4)nc3)ccc2Cl)co1 (centres unmarked) [Example 79, 2-Amino-N-{2-chloro-5-[6-(hexahydropyrrolo[3,4-c]pyrrol-2(1H)-ylmethyl)pyridin-3-yl]phenyl}-1,3-oxazole-4-carboxamide]	10 to 25 nM	250 to 500 nM
Nc1nc(C(=O)Nc2cc(-c3cnn(CCN4CCNCC4)c3)ccc2Cl)co1 [Example 81, 2-Amino-N-(2-chloro-5-{1-[2-(piperazin-1-yl)ethyl]-1H-pyrazol-4-yl}phenyl)-1,3-oxazole-4-carboxamide]	25 to 100 nM	250 to 500 nM
Nc1nc(C(=O)Nc2cc(-c3cnc(OC4CCNCC4)nc3)ccc2Cl)co1 [Example 82, 2-Amino-N-{2-chloro-5-[2-(piperidin-4-yloxy)pyrimidin-5-yl]phenyl}-1,3-oxazole-4-carboxamide]	10 to 25 nM	250 to 500 nM
Nc1nc(C(=O)Nc2cc(-c3ccc(OC4CCNCC4)nc3)ccc2Cl)co1 [Example 84, 2-Amino-N-{2-chloro-5-[6-(piperidin-4-yloxy)pyridin-3-yl]phenyl}-1,3-oxazole-4-carboxamide]	10 to 25 nM	250 to 500 nM
Nc1nc(C(=O)Nc2cc(-c3cnc(OC4CCNCC4)s3)ccc2Cl)co1 [Example 87, 2-Amino-N-{2-chloro-5-[2-(piperidin-4-yloxy)-1,3-thiazol-5-yl]phenyl}-1,3-oxazole-4-carboxamide]	< 10 nM	< 100 nM
CNC1CCN(Cc2ncc(-c3ccc(Cl)c(NC(=O)c4coc(N)n4)c3)s2)CC1 [Example 91, 2-Amino-N-[2-chloro-5-(2-{[4-(methylamino)piperidin-1-yl]methyl}-1,3-thiazol-5-yl)phenyl]-1,3-oxazole-4-carboxamide]	< 10 nM	< 100 nM
CSc1ccc(-c2ccc(OCCCN(C)C)nc2)cc1NC(=O)c1coc(N)n1 [Example 92, 2-Amino-N-[5-{6-[3-(dimethylamino)propoxy]pyridin-3-yl}-2-(methylsulfanyl)phenyl]-1,3-oxazole-4-carboxamide]	25 to 100 nM	250 to 500 nM
CN(C)CCCOc1ccc(-c2ccc(Cl)c(NC(=O)c3coc(N)n3)c2)nc1 [Example 93, 2-Amino-N-(2-chloro-5-{5-[3-(dimethylamino)propoxy]pyridin-2-yl}phenyl)-1,3-oxazole-4-carboxamide]	25 to 100 nM	250 to 500 nM
CNCC1CCN(Cc2ncc(-c3ccc(Cl)c(NC(=O)c4coc(N)n4)c3)s2)CC1 [Example 94, 2-Amino-N-{2-chloro-5-[2-({4-[(methylamino)methyl]piperidin-1-yl}methyl)-1,3-thiazol-5-yl]phenyl}-1,3-oxazole-4-carboxamide]	10 to 25 nM	< 100 nM
CNC1CCCN(Cc2ncc(-c3ccc(Cl)c(NC(=O)c4coc(N)n4)c3)s2)C1 (centres unmarked) [Example 95, 2-Amino-N-[2-chloro-5-(2-{[3-(methylamino)piperidin-1-yl]methyl}-1,3-thiazol-5-yl)phenyl]-1,3-oxazole-4-carboxamide]	< 10 nM	100 to 250 nM
